Results reported in US5610160A, “Topical 5-fluorouracil prodrug composition and method” (priority 1994, dated 1997).
In brackets after ≈: the same amount, converted by molar mass. Read-outs that look alike come from different tables or passages of the source.

How the values were obtained:
[1] = Solubility of prodrug in isopropyl myristate (IPM); details: for solubility: isopropyl myristate, organic solvent or mixture; for CIPM, equivalent mg of 5FU/ml: IPM, 23 ± 1° C., value in parentheses
Experimental: The results from the determination of the physicochemical properties are recorded in the tables as CIPM (the saturated solubility of the prodrug in the isopropyl myristate (IPM) vehicle/formulation in which the prodrug was applied to the mouse skins), K (the partition coefficients of the prodrug between IPM and a pH 4.0 acetate buffer) and Cw (the solubility of the prodrug in pH 4.0 acetate buffer calculated from the partition coefficient and the IPM solubility).

[2] = Partition coefficient between IPM and pH 4.0 acetate buffer; type: physicochemical; details: 23 ± 1° C.
From the text: ^a Partition coefficient between IPM and pH 4.0 acetate buffer at 23

[3] = Diffusion cell experiments: delivery of 5-FU through hairless mouse skin; type: in vitro ADME; details: for Ji, flux of 5-FU through the skin: from suspensions of prodrugs in IPM, hairless mouse skin; for Cs, amount of 5-FU in the skin: leached from hairless mouse skin in 24 hours subsequent to application of prodrug in vehicle for 48 hours; for Jj, flux of theophylline through the skin after application of the prodrug/formulation (relative damage): theophylline from suspension in PG
Experimental: The diffusion cell experiments were conducted as described by Sloan et al in J. Invest.
^b Flux in mg/cm^2 hour of 5FU from suspensions of prodrugs in
^c Amount of 5FU in mg leached from hairless mouse skin in 24 hours
subsequent to application of prodrug in vehicle for 48 hours.
^d Flux in mg/cm^2 hour of theophylline from suspension in PG.

[4] = shake-flask, brief shaking, IPM phase analyzed immediately; details: 23 ± 1 °C
not told = details: 22 °C; cited from earlier work
[5] = 37° C., 0.05 M phosphate buffer pH 7.4, cited from earlier work
[6] = 37° C., 80% human plasma; Buur et al (1984); cited from earlier work
[7] = 22° C., cited from earlier work
[8] = 22° C., cited from earlier work; remark: listed apart in the source
[9] = Int. J. Pharm. 21, 349, Buur et al (1984)
[10] = Buur et al (1986), compound 11 from Buur et al (1987)

CIPM, equivalent mg of 5FU/ml [1]	Structure (SMILES)	solubility [1] [µg/mL]	K, partition coefficient between IPM and pH 4.0 acetate buffer [2]	Ji, flux of 5-FU through the skin [3] [mg/cm^2 hour]	Cs, amount of 5-FU in the skin [3] [mg]	Jj, flux of theophylline through the skin after application of the prodrug/formulation (relative damage) [3] [mg/cm^2 hour]	log partition isopropyl myristate / pH 4.0 acetate buffer [4] [concentration ratio]	log partition octanol / pH 4.0 acetate buffer (not told) [log10 concentration ratio]	Half-life, Buffer ([5]; Buur et al (1984)) [min]	Half-life, 80% Plasma [6] [min]	log K, octanol/pH 4.0 acetate buffer [7, 9]	Cw, solubility at pH 4.0 acetate buffer ([8]; Buur et al (1984)) [mg/ml]	Half-life, Buffer [5, 10] [min]	log K, octanol/pH 4.0 acetate buffer ([7]; J. Pharm. Sci. 75, 522, Buur et al (1986), compound 11 from Int. J. Pharm. 36, 41 (1987))	Cw, solubility at pH 4.0 acetate buffer [8, 10] [mg/ml]
	CCCOC(=O)n1cc(F)c(=O)[nH]c1=O [Compound 9]	3280 (≈ 15.2 mM)	0.359	0.294	0.65	0.300	0.359								
	CCCC(=O)n1cc(F)c(=O)[nH]c1=O [Compound 3]	3480 (≈ 17.4 mM)	2.69	0.168	1.07	0.185	2.69								
	CCC(=O)n1cc(F)c(=O)[nH]c1=O [Compound 2]	6770 (≈ 36.4 mM)	0.764	0.560	8.96	0.219	0.764								
	CCCCC(=O)n1c(=O)[nH]cc(F)c1=O [Compound 16]		1.65	0.071	0.38		1.65								
4.72 equivalent mg of 5FU/ml	CCCCCCCCOC(=O)n1cc(F)c(=O)[nH]c1=O [Compound 12]	10400 (≈ 36.3 mM)		0.037	0.41	0.323									
	CCC(=O)n1cc(F)c(=O)n(C(=O)CC)c1=O [Compound 18]	17400 (≈ 71.8 mM)	33.8	0.090	0.51	0.288	33.8								
	CC(=O)n1c(=O)[nH]cc(F)c1=O [Compound 13]	74 (≈ 0.43 mM)	0.040	0.575	1.77	0.282	0.040	-0.34	43	4.6	-0.34	42.8			
	CC(=O)n1cc(F)c(=O)[nH]c1=O [Compound 1]	3800 (≈ 22.1 mM)	0.185	1.213	8.85	0.296	0.185								
	COC(=O)n1cc(F)c(=O)[nH]c1=O [Compound 7]	400 (≈ 2.13 mM)	0.026	0.343	1.08	0.337	0.026	-0.68					190	-0.68	23.3
154 equivalent mg of 5FU/ml	CCCCC(=O)n1cc(F)c(=O)n(C(=O)CCCC)c1=O [Compound 20]	352000 (≈ 1180 mM)		0.124	1.14	0.156									
	CC(=O)n1cc(F)c(=O)n(C(C)=O)c1=O [Compound 17]	5600 (≈ 26.1 mM)	2.93	0.291	1.24	0.282	2.93								
	CCCCCC(=O)n1cc(F)c(=O)[nH]c1=O [Compound 5]	25700 (≈ 113 mM)	42.9		1.42		42.9								
14.4 equivalent mg of 5FU/ml	CCCCCCCC(=O)n1cc(F)c(=O)[nH]c1=O [Compound 6]	28400 (≈ 111 mM)		0.078	1.58	0.129									
	CCCCC(=O)n1cc(F)c(=O)[nH]c1=O [Compound 4]	8390 (≈ 39.2 mM)	11.3	0.133	2.08	0.144	11.3								
81.4 equivalent mg of 5FU/ml	CCCC(=O)n1cc(F)c(=O)n(C(=O)CCC)c1=O [Compound 19]	169000 (≈ 625 mM)		0.127	1.54	0.190									

Structure (SMILES)	CIPM, equivalent mg of 5FU/ml [1]	solubility [1] [µg/mL]	K, partition coefficient between IPM and pH 4.0 acetate buffer [2]	Ji, flux of 5-FU through the skin [3] [mg/cm^2 hour]	Cs, amount of 5-FU in the skin [3] [mg]	Jj, flux of theophylline through the skin after application of the prodrug/formulation (relative damage) [3] [mg/cm^2 hour]	log partition isopropyl myristate / pH 4.0 acetate buffer [4] [concentration ratio]	log partition octanol / pH 4.0 acetate buffer (not told) [log10 concentration ratio]	Half-life, Buffer ([5]; Buur et al (1984)) [min]	Half-life, 80% Plasma [6] [min]	log K, octanol/pH 4.0 acetate buffer [7, 9]	Cw, solubility at pH 4.0 acetate buffer ([8]; Buur et al (1984)) [mg/ml]	Half-life, Buffer [5, 10] [min]	log K, octanol/pH 4.0 acetate buffer ([7]; J. Pharm. Sci. 75, 522, Buur et al (1986), compound 11 from Int. J. Pharm. 36, 41 (1987))	Cw, solubility at pH 4.0 acetate buffer [8, 10] [mg/ml]
CCC(=O)n1c(=O)[nH]cc(F)c1=O [Compound 14]	1.83 equivalent mg of 5FU/ml	2620 (≈ 14.1 mM)	0.088			0.318	0.088	0.19	50	20	0.19	35.3			
CCCC(=O)n1c(=O)[nH]cc(F)c1=O [Compound 15]	2.89 equivalent mg of 5FU/ml	4440 (≈ 22.2 mM)	0.97			0.204	0.97	0.67	58	28	0.67				
